Read-outs that look alike come from different tables or passages of the source.

The values that follow come from US11352365B2, “Biased potent opioid-like agonists as improved medications to treat chronic and acute pain and methods of using the same” (THE UNITED STATES OF AMERICA, AS REPRESENTED BY THE …, priority 2018, dated 2022).

The target of data set [1] is T1, MOR (Homo sapiens, UniProt P35372). Put plainly: cell-based. Format: cell-based. Set-up: host or cells: U2OS-β-arrestin2-EFC-hMOR. As to conditions: for Emax: read-out: MOR Mediated B-arrestin Recruitment (% Control, Emax DAMGO). Here is the method: The PathHunter β-arrestin assay. The assay was performed according to the manufacturer's protocol (DiscoveRx) and as described previously. Briefly, 5000 U2OS-β-arrestin2-EFC-hMOR cells were plated in 384-well white plates with Opti-MEM media (Invitrogen) containing 1% FBS±pertussis toxin (100 ng/ml) overnight. The next day, cells were treated with compounds for 90 min at 37° C., followed by a 1-hour incubation of detection reagent at room temperature. Luminescence values were determined by using a Synergy HT luminometer (BioTek).
T1 sequence (P35372 whole entry): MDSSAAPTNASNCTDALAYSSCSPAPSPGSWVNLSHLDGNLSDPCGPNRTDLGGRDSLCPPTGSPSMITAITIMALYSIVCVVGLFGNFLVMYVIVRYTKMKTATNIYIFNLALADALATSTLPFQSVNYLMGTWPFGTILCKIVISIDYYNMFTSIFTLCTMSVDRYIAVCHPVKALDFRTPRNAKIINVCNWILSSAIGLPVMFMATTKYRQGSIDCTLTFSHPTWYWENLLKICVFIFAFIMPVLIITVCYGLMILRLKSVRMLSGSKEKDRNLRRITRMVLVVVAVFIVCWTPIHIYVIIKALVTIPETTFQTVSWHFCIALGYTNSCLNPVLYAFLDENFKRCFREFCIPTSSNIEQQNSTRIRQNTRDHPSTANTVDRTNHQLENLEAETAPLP
Background: Arrestin recruitment assays detect the binding of arrestin to an activated receptor.

Data set [2] concerns the target T1, MOR. Briefly: cell-based. Format: cell-based. On the set-up: expressed in transfected cells; host or cells: CHO-hMOR (membrane variant); SH-SY5Y-hMOR also named. Here is the method:
Four thousand cells per well were split into 384-well low-volume plate (VWR) with Opti-MEM (Invitrogen) supplemented with 1% FBS for 3 hours at 37° C. except SH-SY5Y-hMOR cells, which were plated for 1 hour at 37° C. Cells were then treated with drugs, […] forskolin for 30 min at room temperature.
Cells were then homogenized by a Dounce homogenizer 15 times in an ice-cold buffer [50 mM Hepes (pH 7.4)], followed by centrifugation at 500 g at 4° C. for 5 min. The supernatant was transferred to a 1.5-ml tube on ice, and the pellet was resuspended, homogenized, and centrifuged at 500 g at 4° C. for 5 min. Then, the supernatant was combined and spun at 20,000 g at 4° C. for 10 min. The membrane pellet was resuspended in an ice-cold buffer [50 mM Hepes (pH 7.4)] at concentrations of […]. Membranes were stored at −80° C. until use. For forskolin-stimulated cAMP accumulation assay, membranes were diluted in an assay buffer (50 mM Hepes, 10 mM MgCl2, 100 mM NaCl, 200 mM adenosine 5′-triphosphate, 10 mM GTP, 100 mM 3-isobutyl-1-methylxanthine, 20 mM forskolin, and 30 mM bovine serum albumin) and plated at […] of protein in each well. Membranes were treated with test compounds for 30 min at room temperature. The cAMP levels were determined as per the manufacturer's instructions (Cisbio cAMP HiRange assay).

The target in data set [3] is T1, MOR. Format: cell-based. On the set-up: expressed in transfected cells; host or cells: CHO-hMOR (membrane variant); SH-SY5Y-hMOR also named.
The test system of the next data set is δ and μ opioid receptors. Put plainly: In vitro potency ratio at δ and μ opioid receptors. Format: cell-based.
For the next data set, the system named is Male Swiss-Webster mice. Put plainly: Respiration rate and arterial oxygen saturation (MouseOx pulse oximeter) in conscious mice. As to conditions: for respiratory depression in mice: equi-analgesic dose range of morphine. The protocol: Measurement of respiration rate and arterial oxygen saturation. […] They were housed (five in a cage) in a temperature-controlled environment with a 12-hour light-dark cycle and were supplied with food and water ad libitum. Mice were acclimated for a week in the central animal facility before behavioral testing. On the day of the experiment, mice were brought to the room and acclimated for 45-60 min in the observation boxes. Respiration and oxygen saturation (SpO2) were measured using MouseOx Plus Rat and Mouse Pulse Oximeter (Starr Life Sciences Corp, Oakmont, USA) in conscious, freely moving animals. […] Mice were then placed into observation boxes and recording was started 5 min later to eliminate any anesthesia effect.
Data are expressed as mean±standard error of the mean (S.E.M.), and p<0.05 was accepted as statistically significant. GraphPad Prism, version 7, was used for data analysis.

Data set [4] addresses T1, MOR. Set-up: host or cells: U2OS-β-arrestin2-EFC-hMOR. The settings on record: cited from earlier work.
The mark [5] stands for this setting: Table 3, read-out: MOR Mediated B-arrestin Recruitment.
Where [6] appears, read: Table 3, inhibition of forskolin-induced cAMP accumulation, read-out: MOR cAMP Agonist Potency ± SEM.
[7] abbreviates: Table 3, read-out: MOR cAMP Agonist (% Efficacy) (converted).
[8] abbreviates: Table 2, read-out: MOR Mediated B-arrestin Recruitment.
Where [9] appears, read: Table 2, inhibition of forskolin-induced cAMP accumulation, read-out: MOR cAMP Agonist Potency ± SEM.
[10] abbreviates: Table 2, read-out: MOR cAMP Agonist (% Efficacy) (converted).
The mark [11] stands for this setting: Table 4, read-out: MOR cAMP Agonist Potency ± SEM.

Take `C[C@@H]1[C@@H]2CCC[C@@]1(c1cccc(O)c1)CCN2CCc1ccccc1` (single isomer, unassigned) [(−)-48]: the EC50 is > 25000 nM on MOR [1] (setting [5]) and 12.1 ± 4.01 nM on MOR [2] (setting [6]).

Turning to `C[C@@H]1C2CCC[C@@]1(c1cccc(O)c1)CCN2CCc1ccccc1` (single isomer, unassigned; (-)) [(−)-48], the Emax on MOR [2] (setting [7]) is 71%.

In the case of `OC[C@@H]1CC[C@@]2(c3cccc(O)c3)CCN(CCc3ccccc3)[C@H]1C2` (stereo in doubt) [Compound 35, 3-(8-(Hydroxymethyl)-2-phenethyl-2-azabicyclo[3.3.1]nonan-5-yl)phenol], the EC50 on MOR [1] (setting [8]) was > 25000 nM; on MOR [2] (setting [9]), 3.07 ± 2.2 nM. Moreover, on MOR [2] (setting [10]), the Emax was 10.9%. Also, the “Bias Factor” value at MOR [3] (Table 2) is 1254.

In the case of `Oc1cccc([C@]23CCC[C@H]([C@H]2O)N(C[C@H]2C[C@@H]2c2ccccc2)CC3)c1` (stereo in doubt) [Compound 45, (1R,5S,9R)-5-(3-hydroxyphenyl)-2-((trans-2-phenylcyclopropyl)methyl)-2-azabicyclo[3.3.1]nonan-9-ol], the values for the EC50 on MOR [1] and at MOR [2] were 22 nM and 0.12 nM, respectively. Besides, the Emax was 22% on MOR [1] and 100% on MOR [2] (read-out: MOR cAMP Agonist (% Efficacy)). Also, the “Bias Factor” value on MOR [3] stood at 6.1.

For `Oc1cccc(C23CCC[C@H]([C@H]2O)N(C/C=C/c2ccccc2)CC3)c1` (stereo in doubt) [Compound 52, (1R,5R,9S)-2-Cinnamyl-5-(3-hydroxyphenyl)-2-azabicyclo[3.3.1]nonan-9-ol], the Emax at MOR [2] (setting [7]) is 100%. At MOR [3] (Table 3), the “Bias Factor” value was 27.120.

Take `C[C@H]1[C@H]2CCC[C@@]1(c1cccc(O)c1)CCN2CCc1ccccc1` [(+)-48]: the EC50 at MOR [1] (setting [5]) was found to be 7.72 ± 4.6 nM; on MOR [2] (setting [6]) it was 0.4 ± 0.12 nM. The Emax at MOR [1] (Table 3) was 1.8%; on MOR [2] (setting [7]), 91%. The “Bias Factor” value on MOR [3] (Table 3) was determined as 6.7.

For `C[C@@H]1[C@@H]2CCC[C@@]1(c1cccc(O)c1)CCN2CCc1ccccc1` [(−)-48], at MOR [3] (Table 3), the “Bias Factor” value was found to be 2056.

`CCC[C@H]1[C@@H]2CCC[C@@]1(c1cccc(O)c1)CCN2CCc1ccccc1` [Compound 15, 3-(2-Phenethyl-9-propyl-2-azabicyclo[3.3.1]nonan-5-yl)phenol]: the EC50 on MOR [2] (setting [9]) is 0.95 ± 0.35 nM. Further, at MOR [2] (setting [10]), the Emax was 63.3%. For the same compound, the “Bias Factor” value at MOR [3] (Table 2) was 23,442.

With `CCOC(=O)/C=C1\[C@H]2CCC[C@]1(c1cccc(O)c1)CCN2CCc1ccccc1` [Compound 26, Ethyl (Z)-2-(5-(3-hydroxyphenyl)-2-phenethyl-2-azabicyclo[3.3.1]nonan-9-ylidene)acetate], the Emax on MOR [1] (Table 2) was 22.2%; at MOR [2] (setting [10]), 100%. Besides, the “Bias Factor” value on MOR [3] (Table 2) amounted to 179.

On to `CCOC(=O)C[C@@H]1[C@H]2CCC[C@]1(c1cccc(O)c1)CCN2CCc1ccccc1` [Compound 27, Ethyl 2-(5-(3-hydroxyphenyl)-2-phenethyl-2-azabicyclo[3.3.1]nonan-9-yl)acetate], for which the EC50 at MOR [1] (setting [8]) was 175 ± 42.6 nM; at MOR [2] (setting [9]) it was 14.6 ± 3.99 nM. The Emax on MOR [1] (Table 2) is 1.5%; at MOR [2] (setting [10]), 90.4%. Also, the “Bias Factor” value on MOR [3] (Table 2) was 6.7.

Regarding `CCOC(=O)C[C@H]1[C@@H]2CCC[C@@]1(c1cccc(O)c1)CCN2CCc1ccccc1` [Compound 28, Ethyl 2-(5-(3-hydroxyphenyl)-2-phenethyl-2-azabicyclo[3.3.1]nonan-9-yl)acetate], the EC50 on MOR [1] (setting [8]) worked out at 58.8 ± 34.7 nM; at MOR [2] (setting [9]) it was 3.97 ± 1.8 nM. For the same compound, the Emax at MOR [1] (Table 2) was 2.18%; at MOR [2] (setting [10]) it was 78%. The “Bias Factor” value at MOR [3] (Table 2) worked out at 4.8.

In the case of `OC/C=C/[C@H]1[C@@H]2CCC[C@@]1(c1cccc(O)c1)CCN2CCc1ccccc1` [Compound 37, 3-((1S,5R,9R)-9-((E)-3-Hydroxyprop-1-en-1-yl)-2-phenethyl-2-azabicyclo[3.3.1]nonan-5-yl)phenol], the EC50 at MOR [2] (setting [9]) came to 2.31 ± 0.78 nM. Also, the Emax at MOR [2] (setting [10]) was 33.5%. Also, the “Bias Factor” value on MOR [3] (Table 2) is 6794.

For `Oc1cccc2c1O[C@H]1CN(CCc3ccccc3)[C@H]3CCC[C@@]21C3` [Compound 70, (3S,6aR,11aR)-2-Phenethyl-1,3,4,5,6,11a-hexahydro-2H-3,6a-methano-benzofuro[2,3-c]azocin-10-ol], the figures for the EC50 at MOR [1] (setting [5]) and at MOR [2] (setting [6]) were > 25000 nM and 0.5 ± 0.24 nM, respectively. Also, the Emax at MOR [2] (setting [7]) is 32.8%. In addition, the “Bias Factor” value on MOR [3] (Table 3) was 21454.

Consider `O=C1CCC2C3Cc4ccc(O)c5c4[C@@]2(CCN3CCc2ccc(Cl)cc2)[C@H]1O5` (stereo partly drawn) [Compound 71, 3-(4-Chlorophenethyl)-9-hydroxy-2,3,4,4a,5,6-hexahydro-1H-4,12-methanobenzofuro[3,2-e]isoquinolin-7(7aH)-one], for which the “δ/μ ratio (in vitro potency ratio at δ and μ opioid receptors)” value with δ and μ opioid receptors is recorded as “approximately 1”. Besides, the “respiratory depression in mice” value in the data set on Male Swiss-Webster mice is “did not depress respiration”. Also, the “effect on respiration rate (AUC 6 min to 45 min post injection) compared to saline” value in the data set on Male Swiss-Webster mice (mice, s.c., 0.01-0.1 mg/kg) is given as “no effect on respiration rate”. Besides, the EC50 on MOR [1] (Table 4, read-out: MOR Mediated B-arrestin Recruitment) was found to be 2.44 ± 0.45 nM; on MOR [2] (setting [11]), 0.05 ± 0.03 nM. Moreover, the Emax was 44.8% at MOR [1] (Table 4) and 98.8% on MOR [2] (Table 4, read-out: MOR cAMP Agonist (% Efficacy) (converted)). The “Bias Factor” value on MOR [3] (Table 4) came out at 0.82.

Take `O=C1CCC2C3Cc4ccc(O)c5c4[C@@]2(CCN3CCc2ccc(Br)cc2)[C@H]1O5` (stereo partly drawn) [Compound 72, 3-(4-Bromophenethyl)-9-hydroxy-2,3,4,4a,5,6-hexahydro-1H-4,12-methanobenzofuro[3,2-e]isoquinolin-7(7aH)-one]: the “δ/μ ratio (in vitro potency ratio at δ and μ opioid receptors)” value with δ and μ opioid receptors was “approximately 5”. At MOR [2] (setting [11]), the EC50 worked out at 0.15 ± 0.04 nM. The “agonist character at the mu-receptor (in words)” value at MOR [2] (in vitro data) is given as “potent μ agonist”.

Take `C[C@@H](NC(=O)[C@@H](N)Cc1ccc(O)cc1)C(=O)NCC(=O)N(C)[C@@H](Cc1ccccc1)C(=O)NCCO` [DAMGO, reference compound]: the “Bias Factor” value at MOR [3] came out at 1.

Regarding `CN1CC[C@]23c4c5ccc(O)c4O[C@H]2[C@@H](O)C=C[C@H]3[C@H]1C5` [Morphine, reference compound], the “respiratory depression in mice” value with Male Swiss-Webster mice is listed as “did repress respiration”.

For `COc1ccsc1CNCC[C@@]1(c2ccccn2)CCOC2(CCCC2)C1` [TRV130], the “beta-arrestin recruitment (in words), noted for known compound” value on MOR [4] is reported as “does recruit beta-arrestin slightly”.
